Read-outs that look alike come from different tables or passages of the source.
Tests used:
Type in all cases: cell-based
GP2D cells = test: GP2D cell proliferation (CellTiter-Glo); conditions: 72 hr, 0.5% DMSO, read-out: CTG(IC50) ABS-72 H(nM) GP2D
Method: (§1) AGS, A-427, ASPC1, SW 1990, and GP2D cells were plated in 96-well tissue culture plates at 4,000 cells/well and incubated at 37° […] for 72 hr in 100 μl of media. 3-old serial dilutions of each test compound were prepared ranging from 20 μM to 1.02 nM. Each cell line was then treated with test compounds at various concentrations with a final concentration of 0.5% DMSO/well, and then incubated at 37° C./5% CO2 for 72 hr. 100 μl of CellTiter-Glo® Reagent (Promega Corporation, Madison, WI) was added to each well and processed according manufacturer's protocol. Results were analyzed and IC50 values were calculated in GraphPad 7 software. AGS proliferation assay: A. EC50<100 nM; B. EC50=100-1000 nM; C. EC50>1000 nM; GP2D proliferation assay: A. EC50<100 nM; B. EC50=100-1000 nM; C. EC50>1000 nM; MKN1 proliferation assay: A. EC50<100 nM; B. EC50=100-1000 nM; C. EC50>1000 nM;

MKN1 cells = test: MKN1 cell proliferation (CellTiter-Glo); conditions: 0.5% DMSO, read-out: CTG(IC50) ABS-72 H(nM) MKN1
Method: as §1

AGS cells = test: AGS cell proliferation (CellTiter-Glo); conditions: AGS gastric carcinoma [heterozygous G12D], 72 hr, 0.5% DMSO, read-out: CTG(IC50) ABS-72 H(nM) AGS
Method: The following cancer cell lines were employed: AGS gastric carcinoma [heterozygous G12D](ATCC, CRL-1739); A-427 lung carcinoma [heterozygous G12D](ATCC, HTB-53); ASPC1 pancreatic adenocarcinoma [homozygous G12D](ATCC, CRL-1682) and SW 1990 pancreatic adenocarcinoma [homozygous G12D](ATCC CRL-2172). Cell lines were cultured essentially according to ATCC recommendations.
as §1

Row | Compound | IC50 (GP2D cells) [nM] | IC50 (MKN1 cells; 72 hr) [nM] | IC50 (AGS cells) [nM] | IC50 (MKN1 cells; Homo sapiens, MKN-1, 72 hr) [nM] | IC50 (AGS cells; Homo sapiens) [nM]
1 | 2-(3-(2-[(1-(3-azabicyclo[3.1.0]hexan-3-ylmethylcyclopropyl) methoxy]-7-(8-ethynyl-7-fluoro-3-hydroxynaphthalen-1-yl)-8-fluoro-5-methoxypyrido[4,3-d]pyrimidin-4-yl-3,8-diazabicyclo[3.2.1]octan-8-yl)acetonitrile [Compound 1] | < 100 | > 1000 | < 100 | – | –
2 | C#Cc1c(F)ccc2cc(O)cc(-c3nc(OC)c4c(N5CC6CCC(C5)N6C(=O)C#N)nc(OCC5(CN6CC7CC7C6)CC5)nc4c3F)c12 (centres unmarked) [Compound 2] | < 100 | – | – | 100 to 1000 | < 100
3 | C#Cc1c(F)ccc2cc(O)cc(-c3nc(OC)c4c(N5CC6CCC(C5)N6CCC#N)nc(OCC5(CN6CC7CC7C6)CC5)nc4c3F)c12 (centres unmarked) [Compound 3] | < 100 | – | – | > 1000 | 100 to 1000
4 | C#Cc1c(F)ccc2cc(O)cc(-c3nc(OC)c4c(N5CC6CCC(C5)N6CC(F)(F)F)nc(OCC5(CN6CC7CC7C6)CC5)nc4c3F)c12 (centres unmarked) [Compound 4] | 100 to 1000 | – | – | > 1000 | > 1000
5 | C#Cc1c(F)ccc2cc(O)cc(-c3nc(OC)c4c(N5CC6CCC(C5)N6CCOC)nc(OCC5(CN6CC7CC7C6)CC5)nc4c3F)c12 (centres unmarked) [Compound 5] | < 100 | – | – | > 1000 | 100 to 1000
6 | C#Cc1c(F)ccc2cc(O)cc(-c3nc(OC)c4c(N5CC6CCC(C5)N6CCO)nc(OCC5(CN6CC7CC7C6)CC5)nc4c3F)c12 (centres unmarked) [Compound 6] | < 100 | – | – | 100 to 1000 | 100 to 1000
7 | C#Cc1c(F)ccc2cc(O)cc(-c3nc(OC)c4c(N5CC6CCC(C5)N6CCCO)nc(OCC5(CN6CC7CC7C6)CC5)nc4c3F)c12 (centres unmarked) [Compound 7] | < 100 | – | – | 100 to 1000 | 100 to 1000
8 | C#Cc1c(F)ccc2cc(O)cc(-c3nc(OC)c4c(N5CC6CCC(C5)N6CC#N)nc(OC[C@]56CCCN5C[C@@H](F)C6)nc4c3F)c12 [Compound 8] | < 100 | – | – | > 1000 | < 100
9 | C#CCN1C2CCC1CN(c1nc(OCC3(CN4CC5CC5C4)CC3)nc3c(F)c(-c4cc(O)cc5ccc(F)c(C#C)c45)nc(OC)c13)C2 (centres unmarked) [Compound 9] | < 100 | – | – | > 1000 | < 100
10 | [2H]C([2H])([2H])Oc1nc(-c2cc(O)cc3ccc(F)c(C#C)c23)c(F)c2nc(OCC3(CN4CC5CC5C4)CC3)nc(N3CC4CCC(C3)N4C#N)c12 (centres unmarked) [Compound 10] | < 100 | – | – | 100 to 1000 | 100 to 1000
11 | [2H]C([2H])([2H])Oc1nc(-c2cc(O)cc3ccc(F)c(C#C)c23)c(F)c2nc(OCC3(CN4CC5CC5C4)CC3)nc(N3CC4CCC(C3)N4CC#N)c12 (centres unmarked) [Compound 11] | < 100 | – | – | 100 to 1000 | < 100
12 | C#Cc1c(F)ccc2cc(O)cc(-c3nc(OC)c4c(N5CC6CCC(C5)N6CC(C)=O)nc(OCC5(CN6CC7CC7C6)CC5)nc4c3F)c12 (centres unmarked) [Compound 12] | < 100 | – | – | > 1000 | < 100
13 | C#Cc1c(F)ccc2cc(O)cc(-c3nc(OC)c4c(N5CC6CCC(C5)N6CC(F)F)nc(OCC5(CN6CC7CC7C6)CC5)nc4c3F)c12 (centres unmarked) [Compound 13] | 100 to 1000 | – | – | > 1000 | 100 to 1000
14 | C#Cc1c(F)ccc2cc(O)cc(-c3nc(OC)c4c(N5CC6CCC(C5)N6CCCC#N)nc(OCC5(CN6CC7CC7C6)CC5)nc4c3F)c12 (centres unmarked) [Compound 14] | < 100 | – | – | 100 to 1000 | < 100
15 | C#Cc1c(F)ccc2cc(O)cc(-c3nc(OC)c4c(N5CC6CCC(C5)N6C(C)CCC#N)nc(OCC5(CN6CC7CC7C6)CC5)nc4c3F)c12 (centres unmarked) [Compound 15] | > 1000 | – | – | > 1000 | 100 to 1000
16 | C#Cc1c(F)ccc2cc(O)cc(-c3nc(OC)c4c(N5CC6CCC(C5)N6CCC(=O)O)nc(OCC5(CN6CCC(F)CC6)CC5)nc4c3F)c12 [Compound 16] | 100 to 1000 | – | – | > 1000 | > 1000
17 | C#Cc1c(F)ccc2cc(O)cc(-c3nc(OC)c4c(N5CC6CCC(C5)N6CCCF)nc(OCC5(CN6CCC(F)CC6)CC5)nc4c3F)c12 [Compound 17] | < 100 | – | – | > 1000 | 100 to 1000
18 | C#Cc1c(F)ccc2cc(O)cc(-c3nc(OC)c4c(N5CC6CCC(C5)N6CC(=O)O)nc(OCC5(CN6CCC(F)CC6)CC5)nc4c3F)c12 [Compound 18] | – | – | – | > 1000 | > 1000

Reference: US20260297113A1, “DIAZABICYCLOOCTANE INHIBITORS OF KRAS(G12D) AND USES” (Ranok Therapeutics (Hangzhou) Co. Ltd., priority 2023, published 2026)
